Measured values taken from patent publication US6620428B1, “Transdermally administered acetylcysteine as mucolytic agent” (Pharmacia AB, priority 1996, dated 2003).
Read-outs that look alike come from different tables or passages of the source.

Experiments:
[1] = type: in vitro ADME; conditions: pig
Source text: Quantitative determination of N-Acetyl-L-cysteine in the receptor solution samples from the skin permeation studies in Example 2 and from the membrane permeation studies in Example 3, and quantitative determination of N-Acetyl-L-cysteine in the samples from the stability studies in Example 6, was done by the HPLC method described under Apparatus.
In vitro permeation of N-Acetyl-L-cysteine from the solutions 1, 2, 3 and 4 through dermatomed pig skin was investigated in Franz diffusion Cells.
Skin pieces with a thickness of approximately 765 μm were dermatomed from full thickness pig skin and mounted in glass diffusion cells with an available diffusion area of 1.8 cm^2. Pig skin is a fully accepted model for human skin. The solutions 1, 2, 3 and 4 were applied separately on the skin surfaces and the dermal sides were all exposed to 12.1 ml receptor solution consisting of 0.0001M hydrochloric acid equilibrated to 37±1° C.
Permeation of N-Acetyl-L-cysteine was followed by removing samples periodically and measuring the concentration by the HPLC method according to Example 1. An increase in the permeated amount of N-Acetyl-L-cysteine is seen in the following order: Propylene glycol, water, ethanol and propylene glycol containing 5% azone added used as solvents. […]

[2] = oral administration, cited from earlier work

- estimated fluxes of N-Acetyl-L-cysteine through skin [1]: 4-48 μg/cm^2/h
- amount permeated through skin after 20 hours ([1]; 20 h): about 3000 μg/cm^2
Structure (SMILES): CC(=O)N[C@@H](CS)C(=O)O [N-Acetyl-L-cysteine]
- bioavailability when administered perorally [2]: 4%
- bioavailability when administered perorally ([2]; listed as N-Acetyl-cysteine): 4-10%
